Assay results reported in patent US4060611A, “3-Carbamylbenzyl-7-(phenylglycyl)amino cephalosporin derivatives” (Beecham Group Limited, priority 1975, dated 1977).
≈ marks a conversion by molar mass, not a printed value.

Assays:
Type in all cases: cell-based
B. subtilis = test: MIC, growth inhibition on nutrient agar; settings: Bacillus subtilis, nutrient agar (medium not given for Examples 6, 7), read-out: minimum inhibitory concentration (MIC)
Staph. aureus Oxford = test: MIC, growth inhibition on nutrient agar; settings: Staphylococcus aureus, nutrient agar (medium not given for Examples 6, 7), read-out: minimum inhibitory concentration (MIC)
Staph. aureus Russell = test: MIC, growth inhibition on nutrient agar; settings: Staphylococcus aureus, nutrient agar (medium not given for Examples 6, 7), read-out: minimum inhibitory concentration (MIC)
β-haemolytic strep. CN10 = test: MIC, growth inhibition on nutrient agar; settings: nutrient agar (medium not given for Examples 6, 7), read-out: minimum inhibitory concentration (MIC)
E. coli JT1 = test: MIC, growth inhibition on nutrient agar; settings: Escherichia coli, nutrient agar (medium not given for Examples 6, 7), read-out: minimum inhibitory concentration (MIC)
Salm. typhi = test: MIC, growth inhibition on nutrient agar; settings: Salmonella enterica, read-out: minimum inhibitory concentration (MIC)
Shig. sonnei = test: MIC, growth inhibition on nutrient agar; settings: Shigella sonnei, read-out: minimum inhibitory concentration (MIC)
Klebsiella aerogenes A = test: MIC, growth inhibition on nutrient agar; settings: nutrient agar (medium not given for Examples 6, 7), read-out: minimum inhibitory concentration (MIC)
P. mirabilis 889 = test: MIC, growth inhibition on nutrient agar; settings: Proteus mirabilis, read-out: minimum inhibitory concentration (MIC)
P. mirabilis C977 = test: MIC, growth inhibition on nutrient agar; settings: Proteus mirabilis, nutrient agar (medium not given for Examples 6, 7), read-out: minimum inhibitory concentration (MIC)
P. mirabilis 899 = test: MIC, growth inhibition on nutrient agar; settings: Proteus mirabilis, read-out: minimum inhibitory concentration (MIC)
Enterobacter cloacae N1 = test: MIC, growth inhibition on nutrient agar; settings: nutrient agar (medium not stated for Example 6), read-out: minimum inhibitory concentration (MIC)
P. rettgeri = test: MIC, growth inhibition on nutrient agar; settings: Providencia rettgeri, nutrient agar (medium not given for Examples 6, 7), read-out: minimum inhibitory concentration (MIC)
P. morganii = test: MIC, growth inhibition; settings: Morganella morganii, medium not stated, read-out: minimum inhibitory concentration (MIC)

Row | MIC (P. rettgeri) [µg/mL] | MIC (P. morganii) [µg/mL] | Compound | MIC (B. subtilis) [µg/mL] | MIC (Staph. aureus Oxford) [µg/mL] | MIC (Staph. aureus Russell) [µg/mL] | MIC (β-haemolytic strep. CN10) [µg/mL] | MIC (E. coli JT1) [µg/mL] | MIC (Salm. typhi) [µg/mL] | MIC (Shig. sonnei) [µg/mL] | MIC (Klebsiella aerogenes A) [µg/mL] | MIC (P. mirabilis 889) [µg/mL] | MIC (P. mirabilis C977) [µg/mL] | MIC (P. mirabilis 899) [µg/mL] | MIC (Enterobacter cloacae N1) [µg/mL]
1 |  |  | NC(=O)c1ccc(CC2=C(C(=O)O)N3C(=O)[C@@H](NC(=O)[C@H](N)c4ccccc4)[C@H]3SC2)cc1 [Example 1, 3-(p-Carbamoylbenzyl)-7β-(D-α-phenylglycyl)amino-ceph-3-em-4-carboxylic acid] | 0.1 (≈ 0.214 µM) | 0.1 (≈ 0.214 µM) | 2.5 (≈ 5.36 µM) | 0.01 (≈ 0.0214 µM) | 2.5 (≈ 5.36 µM) | 2.5 (≈ 5.36 µM) | 2.5 (≈ 5.36 µM) | 1 (≈ 2.14 µM) | 2.5 (≈ 5.36 µM) |  |  | 
2 |  |  | NC(=O)c1cc(CC2=C(C(=O)O)N3C(=O)[C@@H](NC(=O)[C@H](N)c4ccccc4)[C@H]3SC2)cc(C(N)=O)c1 [Example 5, 3-(3,5-dicarbamoylbenzyl)-7β-(D-α-phenylglycyl)amino-ceph-3-em-4-carboxylic acid] | 2.5 (≈ 4.91 µM) | 0.5 (≈ 0.981 µM) | 5 (≈ 9.81 µM) | 0.5 (≈ 0.981 µM) |  | 10 (≈ 19.6 µM) | 10 (≈ 19.6 µM) | 5 (≈ 9.81 µM) |  |  |  | 
3 |  |  | NC(=O)c1ccc(CC2=C(C(=O)O)N3C(=O)[C@@H](NC(=O)[C@H](N)c4ccc(O)cc4)[C@H]3SC2)cc1 [Example 2, 3-(p-Carbamoylbenzyl)-7β-(D-α-p-hydroxyphenylglycyl)amino-ceph-3-em-4-carboxylic acid] | 0.25 (≈ 0.518 µM) | 0.1 (≈ 0.207 µM) | 1 (≈ 2.07 µM) | 0.02 (≈ 0.0414 µM) | 2.5 (≈ 5.18 µM) | 0.5 (≈ 1.04 µM) | 2.5 (≈ 5.18 µM) | 1 (≈ 2.07 µM) |  | 2.5 (≈ 5.18 µM) | 5 (≈ 10.4 µM) | 
4 | 5 |  | NC(=O)c1ccc(CC2=C(C(=O)O)N3C(=O)[C@@H](NC(=O)C(C(=O)Oc4ccccc4)c4ccsc4)[C@H]3SC2)cc1 (mixture of isomers) [Example 6, 3-(p-Carbamoylbenzyl)-7β-(DL-α-phenoxycarbonyl-3^1-thienylacetamido)ceph-3-em-4-carboxylic acid] | 25 | 12.5 | 25 | 25 | 5 |  |  | 2.5 |  | 12.5 |  | 12.5
5 | 12.5 (≈ 19.1 µM) | 5 (≈ 7.65 µM) | CN(C(=O)C=Cc1ccccc1)C(=O)N[C@@H](C(=O)N[C@@H]1C(=O)N2C(C(=O)O)=C(Cc3ccc(C(N)=O)cc3)CS[C@H]12)c1ccccc1 [Example 7, 3-(p-Carbamoylbenzyl)-7β-[D-α-(3-cinnamoyl-3-methyluriedo)phenylacetamido]ceph-3-em-4-carboxylic acid] | 5 (≈ 7.65 µM) | 0.1 (≈ 0.153 µM) | 12.5 (≈ 19.1 µM) | 0.05 (≈ 0.0765 µM) | 5 (≈ 7.65 µM) |  |  | 5 (≈ 7.65 µM) |  | 5 (≈ 7.65 µM) |  | 
6 |  |  | NC(=O)c1cccc(CC2=C(C(=O)O)N3C(=O)[C@@H](NC(=O)[C@H](N)c4ccccc4)[C@H]3SC2)c1 [Example 4, 3-(m-Carbamoylbenzyl)-7β-(D-α-phenylglycyl)amino-ceph-3-em-4-carboxylic acid] | 0.1 (≈ 0.214 µM) | 0.1 (≈ 0.214 µM) | 2.5 (≈ 5.36 µM) | 0.05 (≈ 0.107 µM) |  | 10 (≈ 21.4 µM) |  | 5 (≈ 10.7 µM) | 10 (≈ 21.4 µM) |  |  | 

Row | Compound | MIC (P. rettgeri) [µg/mL] | MIC (P. morganii) [µg/mL] | MIC (B. subtilis) [µg/mL] | MIC (Staph. aureus Oxford) [µg/mL] | MIC (Staph. aureus Russell) [µg/mL] | MIC (β-haemolytic strep. CN10) [µg/mL] | MIC (E. coli JT1) [µg/mL] | MIC (Salm. typhi) [µg/mL] | MIC (Shig. sonnei) [µg/mL] | MIC (Klebsiella aerogenes A) [µg/mL] | MIC (P. mirabilis 889) [µg/mL] | MIC (P. mirabilis C977) [µg/mL] | MIC (P. mirabilis 899) [µg/mL] | MIC (Enterobacter cloacae N1) [µg/mL]
7 | NC(=O)c1ccc(CC2=C(C(=O)O)N3C(=O)[C@@H](NC(=O)C(C(=O)Oc4ccccc4)c4ccccc4)[C@H]3SC2)cc1 (mixture of isomers) [Example 3, 3-(p-Carbamoylbenzyl)-7β-(DL-α-phenoxycarbonylphenylacetamido)ceph-3-em-4-carboxylic acid] | 5 |  | 10 | 1 | 10 | 1 | 5 | 10 | 5 | 10 |  | 5 |  | 10
